{
  "source": "ChEMBL document CHEMBL1201862",
  "about": "“PubChem BioAssay data set” (2004)",
  "assay_in_all_cases": "DTP human tumour cell line panel, 48 h",
  "key": {"786-0": {"tested_on": "786-0"}, "A549": {"tested_on": "A549"}, "ACHN": {"tested_on": "ACHN"}, "BT-549": {"tested_on": "BT-549"}, "CAKI-1": {"tested_on": "CAKI-1"}, "CCRF-CEM": {"tested_on": "CCRF-CEM"}, "COLO 205": {"tested_on": "COLO 205"}, "DU-145": {"tested_on": "DU-145"}, "EKVX": {"tested_on": "EKVX"}, "HCC 2998": {"tested_on": "HCC 2998"}, "HCT-116": {"tested_on": "HCT-116"}, "HCT-15": {"tested_on": "HCT-15"}, "HOP-62": {"tested_on": "HOP-62"}, "HOP-92": {"tested_on": "HOP-92"}, "HT-29": {"tested_on": "HT-29"}, "IGROV-1": {"tested_on": "IGROV-1"}, "K562": {"tested_on": "K562"}, "KM12": {"tested_on": "KM12"}, "LOX IMVI": {"tested_on": "LOX IMVI"}, "M14": {"tested_on": "M14"}, "MCF7": {"tested_on": "MCF7"}, "MDA-MB-231": {"tested_on": "MDA-MB-231"}, "MDA-MB-435": {"tested_on": "MDA-MB-435"}, "MDA-N": {"tested_on": "MDA-N"}, "MOLT-4": {"tested_on": "MOLT-4"}, "Malme-3M": {"tested_on": "Malme-3M"}, "NCI-H226": {"tested_on": "NCI-H226"}, "NCI-H23": {"tested_on": "NCI-H23"}, "NCI-H460": {"tested_on": "NCI-H460"}, "NCI-H522": {"tested_on": "NCI-H522"}, "NCI/ADR-RES": {"tested_on": "NCI/ADR-RES"}, "OVCAR-3": {"tested_on": "OVCAR-3"}, "OVCAR-4": {"tested_on": "OVCAR-4"}, "OVCAR-5": {"tested_on": "OVCAR-5"}, "OVCAR-8": {"tested_on": "OVCAR-8"}, "PC-3": {"tested_on": "PC-3"}, "RPMI-8226": {"tested_on": "RPMI-8226"}, "RXF 393": {"tested_on": "RXF 393"}, "SF-295": {"tested_on": "SF-295"}, "SF-539": {"tested_on": "SF-539"}, "SK-MEL-28": {"tested_on": "SK-MEL-28"}, "SK-MEL-2": {"tested_on": "SK-MEL-2"}, "SK-MEL-5": {"tested_on": "SK-MEL-5"}, "SK-OV-3": {"tested_on": "SK-OV-3"}, "SN12C": {"tested_on": "SN12C"}, "SNB-19": {"tested_on": "SNB-19"}, "SNB-75": {"tested_on": "SNB-75"}, "SW-620": {"tested_on": "SW-620"}, "T47D": {"tested_on": "T47D"}, "TK-10": {"tested_on": "TK-10"}, "U-251": {"tested_on": "U-251"}, "UACC-257": {"tested_on": "UACC-257"}, "UACC-62": {"tested_on": "UACC-62"}, "UO-31": {"tested_on": "UO-31"}},
  "note": "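In this assay, cells in 96-well plates receive the compound at five concentrations for 48 hours. Endpoints are linearly interpolated between the surrounding concentrations. Abbreviation: GI50, concentration required for 50% inhibition of growth.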 Calls of active or inactive are those of the source. Rule as the data show it: active = GI50 up to about 1.1 µM and inactive = higher.",
  "data": [
    {"smiles": "CCN(CCC#N)C(=O)Nc1ccccc1", "values": [
      {"measurement": "GI50", "setting": "786-0", "value": "> 100 µM (inactive)"},
      {"measurement": "GI50", "setting": "A549", "value": "> 100 µM (inactive)"},
      {"measurement": "GI50", "setting": "ACHN", "value": "> 100 µM (inactive)"},
      {"measurement": "GI50", "setting": "BT-549", "value": "> 100 µM (inactive)"},
      {"measurement": "GI50", "setting": "CAKI-1", "value": "> 100 µM (inactive)"},
      {"measurement": "GI50", "setting": "CCRF-CEM", "value": "> 100 µM (inactive)"},
      {"measurement": "GI50", "setting": "COLO 205", "value": "> 100 µM (inactive)"},
      {"measurement": "GI50", "setting": "DU-145", "value": "> 100 µM (inactive)"},
      {"measurement": "GI50", "setting": "EKVX", "value": "> 100 µM (inactive)"},
      {"measurement": "GI50", "setting": "HCC 2998", "value": "> 100 µM (inactive)"},
      {"measurement": "GI50", "setting": "HCT-116", "value": "> 100 µM (inactive)"},
      {"measurement": "GI50", "setting": "HCT-15", "value": "> 100", "unit": "µM"},
      {"measurement": "GI50", "setting": "HOP-62", "value": "> 100 µM (inactive)"},
      {"measurement": "GI50", "setting": "HOP-92", "value": "> 100 µM (inactive)"},
      {"measurement": "GI50", "setting": "HT-29", "value": "> 100 µM (inactive)"},
      {"measurement": "GI50", "setting": "IGROV-1", "value": "> 100 µM (inactive)"},
      {"measurement": "GI50", "setting": "K562", "value": "> 100 µM (inactive)"},
      {"measurement": "GI50", "setting": "KM12", "value": "86.7 µM (inactive)"},
      {"measurement": "GI50", "setting": "LOX IMVI", "value": "> 100 µM (inactive)"},
      {"measurement": "GI50", "setting": "M14", "value": "> 100 µM (inactive)"},
      {"measurement": "GI50", "setting": "MCF7", "value": "> 100 µM (inactive)"},
      {"measurement": "GI50", "setting": "MDA-MB-231", "value": "> 100 µM (inactive)"},
      {"measurement": "GI50", "setting": "MDA-MB-435", "value": "> 100 µM (inactive)"},
      {"measurement": "GI50", "setting": "MDA-N", "value": "> 100 µM (inactive)"},
      {"measurement": "GI50", "setting": "MOLT-4", "value": "> 100 µM (inactive)"},
      {"measurement": "GI50", "setting": "Malme-3M", "value": "62.7 µM (inactive)"},
      {"measurement": "GI50", "setting": "NCI-H226", "value": "> 100 µM (inactive)"},
      {"measurement": "GI50", "setting": "NCI-H23", "value": "> 100 µM (inactive)"},
      {"measurement": "GI50", "setting": "NCI-H460", "value": "> 100 µM (inactive)"},
      {"measurement": "GI50", "setting": "NCI-H522", "value": "> 100 µM (inactive)"},
      {"measurement": "GI50", "setting": "NCI/ADR-RES", "value": "> 100 µM (inactive)"},
      {"measurement": "GI50", "setting": "OVCAR-3", "value": "> 100 µM (inactive)"},
      {"measurement": "GI50", "setting": "OVCAR-4", "value": "> 100 µM (inactive)"},
      {"measurement": "GI50", "setting": "OVCAR-5", "value": "> 100 µM (inactive)"},
      {"measurement": "GI50", "setting": "OVCAR-8", "value": "> 100 µM (inactive)"},
      {"measurement": "GI50", "setting": "PC-3", "value": "> 100 µM (inactive)"},
      {"measurement": "GI50", "setting": "RPMI-8226", "value": "> 100 µM (inactive)"},
      {"measurement": "GI50", "setting": "RXF 393", "value": "> 100 µM (inactive)"},
      {"measurement": "GI50", "setting": "SF-295", "value": "> 100 µM (inactive)"},
      {"measurement": "GI50", "setting": "SF-539", "value": "> 100 µM (inactive)"},
      {"measurement": "GI50", "setting": "SK-MEL-28", "value": "> 100 µM (inactive)"},
      {"measurement": "GI50", "setting": "SK-MEL-2", "value": "> 100 µM (inactive)"},
      {"measurement": "GI50", "setting": "SK-MEL-5", "value": "> 100 µM (inactive)"},
      {"measurement": "GI50", "setting": "SK-OV-3", "value": "> 100 µM (inactive)"},
      {"measurement": "GI50", "setting": "SN12C", "value": "> 100 µM (inactive)"},
      {"measurement": "GI50", "setting": "SNB-19", "value": "> 100 µM (inactive)"},
      {"measurement": "GI50", "setting": "SNB-75", "value": "93.1 µM (inactive)"},
      {"measurement": "GI50", "setting": "SW-620", "value": "> 100 µM (inactive)"},
      {"measurement": "GI50", "setting": "T47D", "value": "> 100 µM (inactive)"},
      {"measurement": "GI50", "setting": "TK-10", "value": "> 100 µM (inactive)"},
      {"measurement": "GI50", "setting": "U-251", "value": "> 100 µM (inactive)"},
      {"measurement": "GI50", "setting": "UACC-257", "value": "> 100 µM (inactive)"},
      {"measurement": "GI50", "setting": "UACC-62", "value": "> 100 µM (inactive)"},
      {"measurement": "GI50", "setting": "UO-31", "value": "> 100 µM (inactive)"}
    ]}
  ]
}
